Series [1] concerns the target T1, ALK5 (Homo sapiens, UniProt P36897).
T1 sequence (P36897 34-503): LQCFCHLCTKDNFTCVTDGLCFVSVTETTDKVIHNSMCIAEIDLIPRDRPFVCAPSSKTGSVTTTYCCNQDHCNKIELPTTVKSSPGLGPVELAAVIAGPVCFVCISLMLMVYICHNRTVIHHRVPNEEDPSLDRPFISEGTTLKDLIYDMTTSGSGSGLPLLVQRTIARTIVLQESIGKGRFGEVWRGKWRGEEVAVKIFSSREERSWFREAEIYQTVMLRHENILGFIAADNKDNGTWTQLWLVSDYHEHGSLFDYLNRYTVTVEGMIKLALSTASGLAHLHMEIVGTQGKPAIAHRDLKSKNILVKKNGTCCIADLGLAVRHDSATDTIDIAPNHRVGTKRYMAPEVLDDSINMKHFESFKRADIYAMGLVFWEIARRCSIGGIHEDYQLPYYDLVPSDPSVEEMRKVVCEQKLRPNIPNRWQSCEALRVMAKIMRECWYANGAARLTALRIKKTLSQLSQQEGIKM
The series can be described thus: Binding affinity (Kd) of designed peptide. The conditions noted are these: method not described; highest affinity in all designed peptides.

The target of series [2] is T1, ALK5. The series can be described thus: kcat/Km of peptides and loss of binding outside EVTLN region. The note with it: method not described.
Series [3] has as its system corneal epithelium. The series can be described thus: In vivo corneal epithelium debridement wound healing in mice, peptide eye drops. Details: species or system mouse. The note with it: for promotion of corneal epithelium wound healing: debridement wound, eye drops 0.3 μM every 15 min for 5 h. As to the method:
To confirm peptide action promoting corneal epithelium wound healing in vivo, mice were subjected to a 2 mm with corneal epithelium debridement. The injured corneas were treated with 10 μl eye drops lumican peptides (0.3 μM) every 15 min for 5 h as previously described. Migration distance was measured between the original wound edge and the wound front. In Lumikine (LumC13C-A) treated corneas, the epithelium sheet moved ∼144 μm. […] The average epithelium migration (μm) and standard deviation were calculated from n corneas of each of two separate experiments.
(§1) Use of experimental mice is in compliance to the ARVO statement for the use of animals in vision research and all procedures are approved by IACUC of the University of Cincinnati. Lum^−/− mice in C57BL/6 genetic background aged 7–8 weeks were used in this study. Mice were anesthetized with intraperitoneal injections of a combination of ketamine (10 mg/kg; Henry Shein) and xylazine (1 mg/kg; Henry Shein) prior to the surgery, and a drop of proparacaine hydrochloride 0.5% (Alcon) was applied to the cornea to deliver local anesthesia before injury. Briefly, a 2 mm diameter trephine was used to demarcate the central epithelial region of the eye and the epithelium within the demarcated region was mechanically removed using an Algerbrush II (Alger Equipment Co., Inc., Lago Vista, TX) while viewing the cornea under a stereomicroscope (Stemi SC II stereomicroscope with epi-fluorescence attachment, Carl ZEISS). Eight mice per group were treated and the experiments were repeated at least two times. Each mouse was topically treated with one drop peptide solution (10 μl) at concentration of 0.3 μM or 10 μL PBS every 15 min for 5 h after wounding. After 5 h, mice were sacrificed. The eyes were excised and fixed in 4% paraformaldehyde in PB (0.1 M phosphate buffer, pH 7.4. whole mount corneas were stained with phalloidin and DAPI and image with a Zeiss Apo Tome microscope (Observer Z1). The migration of epithelium sheet was determined as previously described. In brief, migrated corneal epithelium was measured on whole mount samples in 5 different locations equally distributed around the entire circumference of the wound. The number of animals in each experimental group is on the bars in the bar chart. The statistical analyses as well as symbols are shown in the graph legend. PBS treated Lum^−/− mice were used as negative controls, in which the epithelium sheet migrated less than 50 μm in 5 h (Supplemental Fig. 2 for representative plots). Four Z-staged images were collected from each corneas, the epithelium migration was determined by the distance of migration of epithelium front to the initial injured line as previously described.

The test system of series [4] is corneal epithelium. Put plainly: In vivo corneal epithelium debridement wound healing in Lum−/− mice, peptide eye drops. Details: species or system C57BL/6 genetic background. The note with it: drops 0.3 μM every 15 min for 5 h.
Description: Lum null (Lum^−/−) mice were also used to examine the efficacy of LumC peptides in promoting epithelium sheet migration following debridement wound (Supplemental Fig. S2).
as §1

Series [5] can be described thus: Mass spectrometry of LumC13 in solution (dimerization). Format: physicochemical. The conditions noted are these: peptide in solution.
For series [6], the target named is T1, ALK5. The note with it: cited from earlier work. An excerpt:
Proteoglycans (PGs) are complex polymers composed of a core protein to which one or more glycosaminoglycan (GAGs) chains are covalently attached. They play a central role in physiology and disease[1][2][3][4][5][6]: modulating cell metabolism, mediating cell-cell trafficking, providing support for connective tissue and regulating of a wide range of effectors at both systemic and cellular levels. Small leucine rich proteoglycans (SLRPs) are a family of proteoglycans with small core proteins (~40 Kd) that contain hyper variable glycosylation sites with multivalent binding abilities. […] In this present study, we have accessed the binding of rationally designed LumC peptides with a related scoring approach, MM-GBSA, after docking and molecular dynamics simulations. In this method, docking scores are used to define initial binding sites, and more expensive and rigorous methods such as molecular dynamics (MD) simulation and binding free ...

Series [7] deals with prostate cancer cell. The conditions noted are these: cited from earlier work. The source says:
This could be of particular interest in conditions where patients display delayed wound healing, such as diabetes, which culminates in an increased risk of inflammation and scarring. The significance of synthesizing lumican peptides that mediate TGFbRI signaling also goes beyond promoting skin and corneal wound healing.

These results are taken from paper PMC5299588, “Lumican Peptides: Rational Design Targeting ALK5/TGFBRI” (Scientific Reports, 2017).

Entries after “also recorded” stand apart in the source; their conditions may differ. No end group written: not given here.

One may read the Kd as the concentration at which binding is half-saturated. LPPDMYECEVTLN [Hybrid 2/3] came in with a Kd in series [1] of 28.7 ± 3.9 µM.

Usually kcat/Km stands for the turnover number divided by the Michaelis constant. Take “YECLRVANEVTLN [LumC13, peptide designed from the 13 C-terminal amino acids of lumican, …]”: the kcat/Km in series [2] was 1e+06 ± 4000 M⁻¹ s⁻¹. In addition, in series [3], the “promotion of corneal epithelium wound healing” value is listed as “increased ability to promote wound healing”. The “promotion of epithelial cell migration (words, conclusion)” value in series [3] (in vitro and in vivo wound healing assays) is “essential to promote epithelial cell migration to the same extent as lumican”. Also, in series [4], the “promotion of epithelium wound healing / migration” value is listed as “moderately increased activity in promoting wound healing when compared to LumC13C-A”. The “dimerization in solution via disulfide bond formation” value in series [5] is given as “dimerization of the LumC13 peptides in solution via disulfide bond formation of cysteine residue, which reduces the activity of dimerized LumC13”.

With “LPPDMYECLRVAN [LumC18ΔC5, Lumican peptide …]”, in series [4], the “promotion of epithelium wound healing / migration” value is listed as “little effect promoting wound healing”.

Regarding “IKHLRLDGEVTLN [Hybrid 1/3, hybrid peptide …]”, the “promotion of epithelium wound healing / migration” value in series [4] was “little effect promoting wound healing”.

Consider “IKHLRLDGNRISE [LumC33ΔC20, Lumican peptide …; control peptide]”, for which the kcat/Km in series [2] is less than 100 M⁻¹ s⁻¹. Also, the “promotion of corneal epithelium wound healing” value in series [3] was “did not promote epithelium wound healing”. In series [4], the “promotion of epithelium wound healing / migration” value is recorded as “little effect promoting wound healing”.

For the substance “YEALRVANEVTLN [LumC13C-A, Lumican peptide … (Lumikine)]”, the epithelium migration distance in series [3] (2 mm debridement, 10 μl eye drops 0.3 μM every 15 min for 5 h, between original wound edge and wound front) is listed as roughly 144 μm. Moreover, the “promotion of corneal epithelium wound healing” value in series [3] is on record as “increased ability to promote wound healing”. Further, in series [4], the “promotion of epithelium wound healing / migration” value was “promoted wound healing of corneal epithelium debridement of Lum^−/− mice to the same extent as injured wild type mice; also recorded: higher pharmaceutical activity of LumC13C-A compared to LumC13; also recorded: significantly promoted epithelium wound healing”. Further, the “binding to ALK5 to promote wound healing” value in series [6] (synthetic LumC13-terminal peptide YEALRVANEVTLN) is given as “binding ALK5 to promote wound healing”.

For the substance “Lumican: class II SLRP member, one of the major proteoglycans in the corneal stroma”, the “wound healing via C-terminal domain / TGFβRI interaction” value in series [6] is given as “promotes wound healing via its C-terminal domain due to its interaction with TGFβRI (ALK5)”. Besides, the “prostate cancer cell migration” value in series [7] was “inhibits prostate cancer cell migration”.
